# Residue numbers refer to the chain shown, from its start.
# Key:
# [1] = molecular target: T1, hM1 (Homo sapiens, UniProt P11229); test: IP-One accumulation assay; assay type: cell-based; settings: wildtype hM1
# T1 sequence (P11229 1-460): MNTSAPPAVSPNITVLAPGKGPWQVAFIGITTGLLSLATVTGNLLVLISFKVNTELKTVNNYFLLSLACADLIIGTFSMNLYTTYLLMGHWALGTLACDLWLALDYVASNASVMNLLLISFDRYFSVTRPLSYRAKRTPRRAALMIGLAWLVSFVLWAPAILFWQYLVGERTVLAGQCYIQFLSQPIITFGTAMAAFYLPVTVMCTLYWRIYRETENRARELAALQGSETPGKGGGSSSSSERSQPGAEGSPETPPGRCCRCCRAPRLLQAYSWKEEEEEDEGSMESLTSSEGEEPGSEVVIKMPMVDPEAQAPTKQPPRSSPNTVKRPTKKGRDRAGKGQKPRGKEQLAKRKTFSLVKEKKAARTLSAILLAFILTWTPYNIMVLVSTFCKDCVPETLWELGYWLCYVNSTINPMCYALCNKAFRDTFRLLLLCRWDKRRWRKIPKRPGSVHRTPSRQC
# [2] = brain protein binding (brain homogenate); assay type: in vitro ADME, mouse
# [3] = tested on: hM4Di expressed in PVH SIM1 neurons; test: food intake, hM4Di in PVH SIM1 neurons (Sim1-Cre mice)
# [4] = tested on: hM3Dq expressed in ARC AgRP neurons; test: food intake, hM3Dq in ARC AgRP neurons (Agrp-ires-Cre mice)
# [5] = tested on: hM3Dq-expressing lateral hypothalamic vGAT neurons; test: recordings from lateral hypothalamic vGAT neurons; assay type: cell-based
# [6] = molecular target: T2, hM4 (Homo sapiens, UniProt P08173); test: inhibition of isoproterenol-stimulated cAMP production; assay type: cell-based; settings: hM4, inhibition of isoproterenol elevated cAMP, mean (±SEM)
# T2 construct: HA (hemagglutinin); expressed in transfected cells
# T2 sequence (P08173 1-479): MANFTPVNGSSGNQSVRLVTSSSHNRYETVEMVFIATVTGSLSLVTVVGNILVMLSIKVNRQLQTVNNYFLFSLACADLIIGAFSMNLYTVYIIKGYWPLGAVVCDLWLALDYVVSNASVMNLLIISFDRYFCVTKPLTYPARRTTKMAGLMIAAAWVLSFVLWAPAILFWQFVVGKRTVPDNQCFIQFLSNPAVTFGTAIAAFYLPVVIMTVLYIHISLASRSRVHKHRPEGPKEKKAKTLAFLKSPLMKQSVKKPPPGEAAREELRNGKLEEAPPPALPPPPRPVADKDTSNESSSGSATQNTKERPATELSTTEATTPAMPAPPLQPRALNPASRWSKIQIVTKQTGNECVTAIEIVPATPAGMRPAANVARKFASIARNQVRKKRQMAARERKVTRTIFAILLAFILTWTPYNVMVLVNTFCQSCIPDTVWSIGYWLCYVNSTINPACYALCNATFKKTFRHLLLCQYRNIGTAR
# [7] = molecular target: D2 (Homo sapiens, UniProt P14416); test: Gi1 BRET dissociation assay, antagonist mode; assay type: cell-based; settings: human D2, HEK293T cells, vs quinpirole
# D2, sequence (P14416 whole entry): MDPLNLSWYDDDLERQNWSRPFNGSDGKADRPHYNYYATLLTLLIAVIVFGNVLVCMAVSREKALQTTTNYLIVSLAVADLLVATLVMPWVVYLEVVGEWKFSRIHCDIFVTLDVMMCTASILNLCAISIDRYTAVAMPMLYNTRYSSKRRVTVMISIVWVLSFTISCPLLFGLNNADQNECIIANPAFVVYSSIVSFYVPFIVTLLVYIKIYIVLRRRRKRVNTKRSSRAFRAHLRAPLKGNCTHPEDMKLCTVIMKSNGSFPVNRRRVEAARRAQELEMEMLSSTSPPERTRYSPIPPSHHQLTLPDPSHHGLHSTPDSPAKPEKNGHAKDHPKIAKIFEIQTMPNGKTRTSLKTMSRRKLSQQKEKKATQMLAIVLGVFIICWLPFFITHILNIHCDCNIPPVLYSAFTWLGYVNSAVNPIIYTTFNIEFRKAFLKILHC
# Protocol: (§1) Separate pcDNA plasmids containing the sequence for Gβ1, Gγ2-GFP^2, Gi1-Rluc8, and either human dopamine D2 receptor or histamine H4 receptor were cotransfected into HEK293T cells (in 10 cm plates) at 1.5 μg/construct using Transit-2020 (Mirus) at a ratio of 3 μL/μg Transit/DNA. The next day, cells were harvested and plated in DMEM containing 1% dFBS in polylysine-coated 96-well plates (Greiner) at 50 000 cells per well. Sixteen hours later, media was aspirated from each well, and cells were subsequently rinsed with 60 μL of assay buffer (20 mM HEPES, 1× Hanks Buffered Saline Solution, pH 7.4). Before drug treatment, 60 μL of fresh assay buffer was added to each well followed by 10 μL of 50 uM Coelenterazine 400a (Prolume). Luminescence and fluorescence were measured using an LB940 Mithras (Berthold technologies), and BRET was computed as the ratio of GFP^2 fluorescence to luciferase signal.
# (§2) In the absence of C21 ([B] = 0), this equation becomes the standard four-parameter logistic equation for fitting agonist concentration–response data.
# [8] = molecular target: T3, human H4 histamine receptors (Homo sapiens, UniProt Q9H3N8); test: Gi1 BRET dissociation assay, antagonist mode; assay type: cell-based; settings: human H4, HEK293T cells, vs histamine
# T3 construct: expressed in transfected cells; host or cells: HEK293T, transient (pcDNA plasmids)
# T3 sequence (Q9H3N8 whole entry): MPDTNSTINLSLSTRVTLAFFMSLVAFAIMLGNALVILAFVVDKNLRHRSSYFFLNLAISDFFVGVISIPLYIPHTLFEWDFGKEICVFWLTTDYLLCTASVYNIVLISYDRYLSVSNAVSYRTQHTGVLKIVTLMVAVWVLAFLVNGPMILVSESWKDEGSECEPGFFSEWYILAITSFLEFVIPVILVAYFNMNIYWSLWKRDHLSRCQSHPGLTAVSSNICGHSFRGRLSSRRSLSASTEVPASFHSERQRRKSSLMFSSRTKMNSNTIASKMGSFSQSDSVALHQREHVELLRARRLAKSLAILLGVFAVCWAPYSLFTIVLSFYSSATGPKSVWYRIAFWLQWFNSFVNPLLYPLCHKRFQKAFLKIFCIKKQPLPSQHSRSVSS
# Protocol: as §1, §2
# [9] = molecular target: T2, hM4; test: pERK assay, antagonist mode (shift of ACh curve); assay type: cell-based; settings: hM4, CHO cells
# [10] = molecular target: T4, hM4Di (Homo sapiens, UniProt P08173, A203G/Y113C); test: ERK1/2 phosphorylation (pERK1/2) assay
# T4 sequence (P08173 1-479 Y113C/A203G): T2 sequence (P08173 1-479) with Y113C, A203G
smiles,measurement,setting,value
"c1ccc2c(c1)N=C(N1CCNCC1)c1ccccc1N2 [C21, 11-(1-piperazinyl)-5H-dibenzo[b,e][1,4]diazepine]",agonist activity in IP1 assay,[1],no agonist activity
same,unbound in brain,[2]; brain,4.9%
same,fraction unbound,"[2]; mouse, brain homogenate",0.05
same,"food intake, light cycle, sated mice","[3]; SIM1-Cre mice with AAV-DIO-hM4Di-mCherry, i.p.",substantially enhanced food consumption at comparable levels to CNO
same,food intake in control mice,[3]; wildtype (non-Cre-expressing) littermates injected with AAV-DIO-hM4Di-mCherry,neither C21 nor CNO ligand influenced food intake
same,"food intake, light cycle, sated mice","[4]; AgRP-ires-Cre mice with AAV-DIO-hM3Dq-mCherry, i.p.",dose-dependently promoted food consumption at comparable levels to CNO
same,food intake in control mice,[4]; wildtype (non-Cre-expressing) littermates injected with AAV-DIO-hM3Dq-mCherry,neither C21 nor CNO affected feeding behavior
same,depolarization of neurons,[5],depolarization
same,EC50,[6],1860 nM
same,"antagonist activity, Gi-dissociation assay",[7],antagonism
same,"antagonist activity, Gi-dissociation assay",[8],no antagonism was observed
same,"antagonist activity (shift of acetylcholine curve, pERK)",[9],weak functional antagonism
same,EC50,[10],17 nM

# Source: paper PMC6407913, “DREADD Agonist 21 Is an Effective Agonist for Muscarinic-Based DREADDs in Vitro and in Vivo” (ACS Pharmacology & Translational Science, 2018)
